Source: ChEMBL document CHEMBL1136833, “Novel non-peptide inhibitors targeting death receptor-mediated apoptosis” (Bioorg Med Chem Lett, 2003)
Active and inactive are the calls of the source. The calls are words filed in the database; no cut-off is given here.

Key:
Jurkat [1] = test: Effective dose to inhibit FasL-induced apoptosis in Jurkat cells (Type II); NE=no effect; format: functional, cell-based; conditions: Homo sapiens
Jurkat [2] = test: Effective dose to inhibit staurosporine-induced apoptosis in Jurkat cells (Type II); NE=no effect; format: functional, cell-based; conditions: Homo sapiens
Jurkat [3] = test: Cytotoxicity against Jurkat cell growth (Type II); format: functional, cell-based; conditions: Homo sapiens
SKW 6.4 [4] = test: Effective dose to inhibit staurosporine-induced apoptosis in SK W6.4 cells (Type I); NE=no effect; format: functional, cell-based; conditions: Homo sapiens
SKW 6.4 [5] = test: Cytotoxicity against SK W6.4 cell growth (Type I); format: functional, cell-based; conditions: Homo sapiens
SKW 6.4 [6] = test: Effective dose to inhibit FasL-induced apoptosis in SK W6.4 cells (Type I); format: functional; conditions: Homo sapiens, read-out: ED50 (the source's name)
Jurkat [7] = test: Effective dose to inhibit FasL-induced apoptosis in Jurkat cells (Type II); format: functional; conditions: Homo sapiens, read-out: ED50 (the source's name)
Jurkat [8] = test: Effective dose to inhibit staurosporine-induced apoptosis in Jurkat cells (Type II); format: functional; conditions: Homo sapiens, read-out: ED50 (the source's name)
SKW 6.4 [9] = test: Effective dose to inhibit staurosporine-induced apoptosis in SK W6.4 cells (Type I); format: functional; conditions: Homo sapiens, read-out: ED50 (the source's name)
SKW 6.4 [10] = test: Effective dose to inhibit FasL-induced apoptosis in SK W6.4 cells (Type I); NE=no effect; format: functional, cell-based; conditions: Homo sapiens

SMILES | EC50 (SKW 6.4 [6]) [µM] | EC50 (Jurkat [7]) [µM] | EC50 (Jurkat [8]) [µM] | EC50 (SKW 6.4 [9]) [µM] | ED50 (Jurkat [1]) | ED50 (Jurkat [2]) | IC50 (Jurkat [3]) [µM] | ED50 (SKW 6.4 [4]) | IC50 (SKW 6.4 [5]) [µM] | ED50 (SKW 6.4 [10])
C/C=C/C1=C(CO)[C@H](OC)[C@H]2O[C@H]2C1=O | 20 | 25 | > 80 | > 80 |  |  | > 80 |  | > 80 | 
C/C=C/C1=C(CO)C(=O)[C@H]2O[C@H]2C1=O |  |  |  |  | inactive | inactive | 8 | inactive | 9 | inactive
CCCC/C=C/C1=C(CO)C(=O)[C@H]2O[C@H]2C1=O |  |  |  |  | inactive | inactive | 10 | inactive | 7 | inactive
O=C1C(/C=C/c2ccccc2)=C(CO)[C@H](O)[C@H]2O[C@@H]12 |  |  |  |  | inactive | inactive | 20 | inactive | 30 | inactive
C/C=C/C1=C(CO)[C@@H](O)[C@@H]2O[C@@H]2C1=O | 20 | 25 | > 80 | > 80 |  |  | 60 |  | 80 | 

The next lines start with results.

EC50 (SKW 6.4 [6]) [µM] | EC50 (Jurkat [7]) [µM] | EC50 (Jurkat [8]) [µM] | EC50 (SKW 6.4 [9]) [µM] | SMILES | ED50 (Jurkat [1]) | ED50 (Jurkat [2]) | IC50 (Jurkat [3]) [µM] | ED50 (SKW 6.4 [4]) | IC50 (SKW 6.4 [5]) [µM] | ED50 (SKW 6.4 [10])
10 |  |  |  | CCCC/C=C/C1=C(CO)[C@H](O)[C@H]2O[C@H]2C1=O | inactive | inactive | 15 | inactive | 35 | 
4 | 6 | > 80 | > 80 | C=CC1=C(CO)[C@H](O)[C@H]2O[C@H]2C1=O |  |  | > 80 |  | > 80 | 
10 | 10 | > 80 | > 80 | C/C=C(\C)C1=C(CO)[C@H](O)[C@H]2O[C@H]2C1=O |  |  | > 80 |  | > 80 | 
5 | 6 | > 80 | > 80 | C/C=C/C1=C(CO)[C@H](O)[C@H]2O[C@H]2C1=O |  |  | > 80 |  | > 80 | 
10 | 18 | > 80 | > 80 | O=C1C=C(CO)[C@H](O)[C@H]2O[C@@H]12 |  |  | > 80 |  | > 80 | 
